Test results: US20160324992A1, “IDENTIFICATION AND TREATMENT OF VULNERABLE PLAQUES” (OTTAWA HEART INSTITUTE RESEARCH CORPORATION, priority 2015, published 2016)
“Also recorded” adds a separate entry of the source.

Experiments:
Serum stability testing = assay type: in vitro ADME; conditions: 37° C., 24 hours, HPLC
Experimental: Serum stability testing of 7-^123I-O-Nec-1. Serum stability testing was carried out by mixing 25 μL of 7-^123I-O-Nec-1 (5) and 100 μL of rat serum at 37 ° C. for 24 hours. […] cold EtOH was added afterwards, and the mixture was centrifuged at 2500 ×g at 4° C. for 15 minutes to precipitate proteins. The supernatant was injected into HPLC.

[1] = Biodistribution in C57BL/6 mice; assay type: in vivo; conditions: for organ uptake: Blood / organ uptake: Brain / organ uptake: Femur / organ uptake: Heart / organ uptake: Intestine / organ uptake: Kidney / organ uptake: Liver / organ uptake: Lung / organ uptake: Muscle / organ uptake: Ovaries/testis / organ uptake: Spleen / organ uptake: Stomach / organ uptake: Thyroid / organ uptake: Urine: female C57BL/6 mice, i.v. 5.3-6.7 MBq, mean ± SD, n = 3
Experimental: (§1) Biodistribution studies were carried out on C57BL/6 mice weighing 19-21 g and Sprague Dawley rats weighing 400-560 g (Charles River Laboratories, Mass., USA). On the day of experimentation, the animals were anesthetized and maintained under isofluorane during the injection. A tail vein catheter was inserted, 5.3-6.7 MBq of 7-^123I-O-Nec-1 was administered to the mice and 3.1-3.3 MBq of 7-^123I-O-Nec-1 was injected into the rats. The animals were sacrificed at 1 hr or 2 hr post injection (p.i.) (n=3 per group). The heart, liver, kidney, muscle, femur, spleen, blood, brain, intestine, lung, stomach, urine/bladder, ovaries/testes and thyroid were extracted, weighed and analyzed for total gamma counts (Wizard 2 2480 Automatic Gamma Counter, Perkin Elmer). The tissue uptake was decay corrected, and the percentage of injected dose per gram (% ID/g) was calculated.

[2] = Biodistribution in Sprague-Dawley rats; assay type: in vivo
Experimental: as §1

[3] = system: atherosclerotic lesions in ApoE−/− mice; assay: Ex vivo autoradiography of aorta, en face and Oil Red O comparison; assay type: in vivo, mouse; conditions: for localization of the tracer in the aorta (in words): ApoE−/− mice with established lesions, 2 hours after i.v. injection, en face aortic arch; for correlation between lesion area measured by tracer autoradiography and ORO / en face (in words): ApoE−/− mice, ex vivo
From the text: Radiochemistry and ex vivo autoradiography study with ApoE^−/− mice. The tracer ^123I-Nec-1 (7-^123I-Nec-1) was synthesized by a Cu(I) catalyzed direct halogen exchange reaction with the precursor 7-Br-Nec-1 and Na^123I. Eight week-old female apolipoprotein E knockout (Apo E^−/−) mice were purchased from Charles River Laboratories and fed either a chow or western diet (TD.10885, Harlan Laboratories) for 2 months (total n=6 mice). 7-^123I-O-Nec-1 (37.0-55.5 MBq) was administrated intravenously into the mice under anesthetic. After 2 hr, the mice were euthanized and perfused with PBS followed by 10% formalin via left ventricle cannulation. Aorta was dissected from heart at the base using a dissecting microscope following removal of surrounding fat and connective tissue. En face specimens were immediately exposed to super resolution phosphor screens in an autoradiography cassette. After overnight exposure at room temperature, the screens were scanned with a Cyclone Phosphor Imager (Perkin Elmer, Downers Grove, Ill.). Images were analyzed using OptiQuant™ 5.0 software. The regions of interest (ROI) were drawn around the lesions on the aortic arch, and the counts in Digital Light Unit (DLU) and surface areas in mm^2 were measured. The DLU was converted to activity in μCi using a set of calibration standards with known activities, which were exposed and scanned on the same screen used for the aorta samples, as previously described (Zhao et al, 2007; Matter et al., 2006). The percentage injected dose (% ID) was calculated from dividing the activity (pCi) of the lesion by the injected activity. Activity density in % ID/m^2 was calculated and normalized by animal body weight to get % ID×kg/m^2. The areas of the lesions and the whole aortic arch in mm^2 were also recorded using the OptiQuant™ 5.0 software, and the percentage of lesion within the area of the aorta vessel wall was calculated.
Ex vivo autoradiography study with ApoE^−/− mice. Eight week-old female apolipoprotein E knockout (Apo E^−/−) mice were purchased from Charles River Laboratories (Charles River, Canada) and fed either a chow or western diet (TD.10885, Harlan Laboratories) for 2 months (n=3 per group). […] 7-^123I-O-Nec-1 (37.0-55.5 MBq) was administrated intravenously into the mice under anesthetic. After 2 hr, the mice were euthanized in a CO2 chamber. Using a Gilson Minipuls 2 peristaltic pump, the mice were perfused with 20 mL phosphate buffered saline (PBS) followed by 10 mL of 10% formalin via left ventricle cannulation. Perfusate was drained from a cut within the right atrium. Aorta was dissected from heart at the base using a dissecting microscope following removal of surrounding fat and connective tissue. For en face experiments aortic tissues were flattened by a longitudinal cut through one side of the aortic wall cutting through the carotids and the innominant artery until the aorta was split forming a Y-shaped structure.
The uptake and distribution of the tracer on aortic tissue was studied using digital autoradiography method. En face specimens were immediately exposed to super resolution phosphor screens in a Fisher Biotech autoradiography cassette. After overnight exposure at room temperature, the screens were scanned with a Cyclone Phosphor Imager (Perkin Elmer, Downers Grove, Ill.). Images were analyzed using OptiQuant™ 5.0 software. The regions of interest (ROI) were drawn around the lesions on the aortic arch, and the counts in Digital Light Unit (DLU) and surface areas in mm^2 were measured. The DLU was converted to activity in pCi using a set of calibration standards with known activities, which were exposed and scanned on the same screen used for the aorta samples. The percentage injected dose (% ID) was calculated from dividing the activity (pCi) of the lesion by the injected activity. Activity density in % ID/m^2 was calculated and normalized by animal body weight to get % ID×kg/m^2. […]

[4] = male Sprague-Dawley rats, 2 hr p.i., i.v. 3.1-3.3 MBq, mean ± SD, n = 3

With `CN1C(=O)NC(Cc2c[nH]c3c([123I])cccc23)C1=O` (centres unmarked) [7-^123I-O-Nec-1, 5-((7-lodo (^123I)-1H-indol-3-yl)methyl)-3-methylimidazolidine-2,4-dione] as the compound, how does the “stability in rat serum” value (Serum stability testing) read?
Its value is “stable in serum, no de-iodination or degradation was found; also recorded: stable in vitro in serum”.

And the “clearance of the tracer (in words)” value ([1]; biodistribution in C57BL/6 mice, i.v.)?
The value was “fast renal and liver/gastrointestinal clearance; also recorded: excreted rapidly from the renal system”.

What about the “organ uptake: Blood” value ([1]; 1 hr p.i.) of the same compound?
Its value is 3.149 ± 0.547 % ID/g.

What about the “organ uptake: Brain” value ([1]; 1 hr p.i.) of the same compound?
Its value is 0.429 ± 0.170 % ID/g.

What about the “organ uptake: Femur” value ([1]; 1 hr p.i.) of the same compound?
The value was 1.167 ± 0.214 % ID/g.

What about the “organ uptake: Heart” value ([1]; 1 hr p.i.) of the same compound?
Its value is 1.868 ± 0.519 % ID/g.

And the “organ uptake: Intestine” value ([1]; 1 hr p.i.)?
The value was 16.578 ± 1.224 % ID/g.

And the “organ uptake: Kidney” value ([1]; 1 hr p.i.)?
Its value is 4.296 ± 1.084 % ID/g.

And the “organ uptake: Liver” value ([1]; 1 hr p.i.)?
Its value is 4.030 ± 0.824 % ID/g.

What about the “organ uptake: Lung” value ([1]; 1 hr p.i.) of the same compound?
The value was 3.248 ± 0.788 % ID/g.

And the “organ uptake: Muscle” value ([1]; 1 hr p.i.)?
The value was 0.859 ± 0.278 % ID/g.

And the “organ uptake: Ovaries/testis” value ([1]; 1 hr p.i.)?
The value was 2.349 ± 0.570 % ID/g.

And the “organ uptake: Spleen” value ([1]; 1 hr p.i.)?
Its value is 2.657 ± 0.390 % ID/g.

What about the “organ uptake: Stomach” value ([1]; 1 hr p.i.) of the same compound?
The value was 19.294 ± 2.556 % ID/g.

And the “organ uptake: Thyroid” value ([1]; 1 hr p.i.)?
The value was 7.344 ± 1.469 % ID/g.

And the “organ uptake: Urine” value ([1]; 1 hr p.i.)?
Its value is 103.153 ± 41.005 % ID/g.

And the “organ uptake: Blood” value ([1]; 2 hr p.i.)?
The value was 3.136 ± 1.024 % ID/g.

What about the “organ uptake: Brain” value ([1]; 2 hr p.i.) of the same compound?
Its value is 0.640 ± 0.847 % ID/g.

What about the “organ uptake: Femur” value ([1]; 2 hr p.i.) of the same compound?
The value was 1.189 ± 0.205 % ID/g.

And the “organ uptake: Heart” value ([1]; 2 hr p.i.)?
The value was 1.405 ± 0.484 % ID/g.

And the “organ uptake: Intestine” value ([1]; 2 hr p.i.)?
The value was 25.573 ± 19.206 % ID/g.

What about the “organ uptake: Kidney” value ([1]; 2 hr p.i.) of the same compound?
The value was 3.841 ± 0.429 % ID/g.

And the “organ uptake: Liver” value ([1]; 2 hr p.i.)?
The value was 2.562 ± 0.916 % ID/g.

What about the “organ uptake: Lung” value ([1]; 2 hr p.i.) of the same compound?
Its value is 2.975 ± 1.025 % ID/g.

What about the “organ uptake: Muscle” value ([1]; 2 hr p.i.) of the same compound?
The value was 0.723 ± 0.307 % ID/g.

And the “organ uptake: Ovaries/testis” value ([1]; 2 hr p.i.)?
The value was 1.462 ± 0.184 % ID/g.

And the “organ uptake: Spleen” value ([1]; 2 hr p.i.)?
Its value is 2.173 ± 0.728 % ID/g.

What about the “organ uptake: Stomach” value ([1]; 2 hr p.i.) of the same compound?
Its value is 25.711 ± 4.877 % ID/g.

What about the “organ uptake: Thyroid” value ([1]; 2 hr p.i.) of the same compound?
The value was 18.387 ± 14.764 % ID/g.

What about the “organ uptake: Urine” value ([1]; 2 hr p.i.) of the same compound?
The value was 80.627 ± 12.850 % ID/g.

And the “in vivo de-iodination (in words)” value ([1]; normal C57BL/6 mice, thyroid and stomach uptake 1 hr to 2 hr p.i.)?
The value was “de-iodination over time; also recorded: some degree of in vivo de-iodination; also recorded: limited in vivo de-iodination”.

And the “clearance of the tracer (in words)” value ([2]; biodistribution in Sprague-Dawley rats, i.v., 2 hr p.i.)?
The value was “fast renal and liver/gastrointestinal clearance; also recorded: excreted rapidly from the renal system”.

What about the “organ uptake: Blood” value [2, 4] of the same compound?
Its value is 0.153 ± 0.031 % ID/g.

What about the “organ uptake: Brain” value [2, 4] of the same compound?
Its value is 0.023 ± 0.004 % ID/g.

And the “organ uptake: Femur” value [2, 4]?
The value was 0.052 ± 0.009 % ID/g.

And the “organ uptake: Heart” value [2, 4]?
Its value is 0.098 ± 0.007 % ID/g.

What about the “organ uptake: Intestine” value [2, 4] of the same compound?
Its value is 0.867 ± 0.062 % ID/g.

And the “organ uptake: Kidney” value [2, 4]?
Its value is 0.236 ± 0.016 % ID/g.

And the “organ uptake: Liver” value [2, 4]?
The value was 0.226 ± 0.028 % ID/g.

And the “organ uptake: Lung” value [2, 4]?
Its value is 0.143 ± 0.013 % ID/g.

What about the “organ uptake: Muscle” value [2, 4] of the same compound?
Its value is 0.048 ± 0.005 % ID/g.

What about the “organ uptake: Ovaries/testis” value [2, 4] of the same compound?
Its value is 0.089 ± 0.009 % ID/g.

What about the “organ uptake: Spleen” value [2, 4] of the same compound?
The value was 0.106 ± 0.009 % ID/g.

And the “organ uptake: Stomach” value [2, 4]?
The value was 1.685 ± 0.395 % ID/g.

What about the “organ uptake: Thyroid” value [2, 4] of the same compound?
The value was 1.407 ± 0.189 % ID/g.

And the “organ uptake: Urine” value [2, 4]?
Its value is 2.513 ± 0.282 % ID/g.

What about the “in vivo de-iodination (in words)” value ([2]; normal Sprague-Dawley rats) of the same compound?
Its value is “some degree of in vivo de-iodination”.

What about the “aortic lesion uptake in HFD-fed ApoE−/− mice versus chow-fed ApoE−/− and control mice (in words)” value ([3]; 4 month old mice, 37.0-55.5 MBq i.v., 2 hr, n=3 per group) of the same compound?
The value was “significantly higher tracer uptake”.

And the “lesion uptake in chow-fed ApoE−/− mice versus aortic arch uptake of control mice (in words)” value ([3]; 4 month old mice, 2 hr p.i., p=0.3)?
The value was “similar; also recorded: not statistically significant”.

What about the “localization of the tracer in the aorta (in words)” value ([3]; listed as 123I-Nec-1) of the same compound?
Its value is “primarily localized to areas of plaque accumulation”.

And the “localization of the tracer in the aorta (in words)” value ([3]; listed as 123INec-1)?
Its value is “specifically localizes to advanced atherosclerotic lesion areas”.

And the “correlation between lesion area measured by tracer autoradiography and ORO / en face (in words)” value [3]?
Its value is “good correlation”.

What about the “correlation between lesion area measured by tracer autoradiography and ORO / en face (in words)” value ([3]; listed as 123I-Nec-1) of the same compound?
The value was “significant correlation”.
